In general, pIC50 refers to the IC50 on a negative log10 scale, so that one unit is a factor of ten. Read a low pIC50 as a high IC50.

Consider 86 compounds from the COVID Moonshot data (paper PMC7615835).

pIC50: −log10 of the molar value. Values joined by “and” are separate entries in the source; they are usually repeats but may differ in a detail not shown here. Identical values can stand only once. A value given as a limit tells only on which side of the number the result lay.

The assay deals with SARS-CoV-2 Main Protease (SARS-CoV-2) (UniProt P0DTD1).

The compound `CC(C)Cn1cc(NC(=O)NCc2ccco2)c2ccccc2c1=O` showed a pIC50 of 4.53.

Take `CC(NC(=O)c1nccc2cccnc12)c1ccc2[nH]c(=O)oc2c1` (stereo unspecified): the pIC50 was below 4.00.

`O=C(c1cccc(N2CCCNC2=O)c1)N1CCC(C2CCNC2)CC1` (stereo unspecified) showed a pIC50 below 4.00.

`O=C(Cc1cc(Cl)cc(CC2CC(=O)N2)c1)Nc1cncc2ccccc12` (stereo unspecified): the pIC50 is 5.34.

For the compound `O=C(Cc1cccc(Cl)c1)Nc1cncc2[nH]ncc12`, the pIC50 was 4.66.

Regarding `COc1cccc(CN2CCN(C(=O)c3cc(=O)[nH]c4ccccc34)CC2)c1`, the pIC50 was 4.56.

For `COc1cncc(C(C(=O)NCCc2cccc(F)c2)N(C(=O)c2ccco2)c2ccc(C(C)(C)C)cc2)c1C` (stereo unspecified), the pIC50 was below 4.00.

Compound `Cc1cn(-c2cc(Nc3cc(Cl)cc(CC(=O)Nc4cncc5ccccc45)c3)cc(C(F)(F)F)c2)cn1` showed a pIC50 of 5.60.

With `CN(C)C(=O)CN1CCc2ccc(Cl)cc2C1C(=O)Nc1cncc2ccccc12` (stereo unspecified), the pIC50 is 5.81.

In turn, `Cc1cc(Nc2cc(Cl)cc(CC(=O)Nc3cncc4ccccc34)c2)cnc1Br` gave a pIC50 of 5.71.

Compound `CCCc1cc2c(cc1S(=O)(=O)N1CCN(c3ccccc3OC)CC1)OCO2` gave a pIC50 below 4.00.

For the compound `CC(C)(C#N)CS(=O)(=O)N1Cc2ccc(Cl)cc2[C@H](C(=O)Nc2cncc3ccccc23)C1` (stereo in doubt), the pIC50 was 7.26 and 7.01 and 6.85.

`CCc1cc(Br)ccc1Nc1cc(Cl)cc(CC(=O)Nc2cncc3ccccc23)c1` had a pIC50 of 5.50.

Compound `O=C(NCCc1cccc(F)c1)C(c1cccnc1)N(C(=O)c1cocn1)c1ccc(-n2ccnc2)cc1` (stereo unspecified) gave a negative logarithm of the IC50 (pIC50) below 4.00.

`Cc1cn2nnc(C(=O)N(c3ccc(C(C)(C)C)cc3)C(C(=O)NCCc3cccc(F)c3)c3cccnc3)c2c(=O)[nH]1` (stereo unspecified) gave a pIC50 below 4.00.

With `O=C(Cc1cncc2ccccc12)N1CCOc2ccc(Cl)cc21`, the pIC50 was 5.22.

In turn, `CS(=O)(=O)Nc1ccc2c(NC(=O)Cc3cccc(Cl)c3)cncc2c1` had a negative-log IC50 (pIC50) of 6.05.

As to `Cc1cc(Br)c(Cl)cc1Nc1cc(Cl)cc(CC(=O)Nc2cncc3ccccc23)c1`, the pIC50 was 5.69.

Take `O=C(Cc1cccc(Cl)c1)Nc1n[nH]c2ccnc(Br)c12`: the pIC50 is below 4.00.

As for `CN(C)S(=O)(=O)NCC1(C(=O)Nc2cncc3ccccc23)CCOc2ccc(Cl)cc21` (stereo unspecified), the pIC50 was 5.56.

`O=C(NCCO)c1ccc(N(C(=O)c2cocn2)C(C(=O)NCCc2cccc(F)c2)c2cccnc2)cc1` (stereo unspecified) showed a pIC50 below 4.00.

On to `N#CCS(=O)(=O)N1Cc2ccc(Cl)cc2C(C(=O)Nc2cncc3ccccc23)C1` (stereo unspecified), for which the pIC50 is 6.48.

`Cc1cc(Br)cc(Nc2cc(Cl)cc(CC(=O)Nc3cncc4ccccc34)c2)c1`: the pIC50 was 5.71.

In turn, `CC1(CS(=O)(=O)N2Cc3ccc(Cl)cc3[C@@H](C(=O)Nc3cncc4ccccc34)C2)CC1` (stereo in doubt) showed a pIC50 of 5.34.

For `Cc1ccncc1NC(=O)Cc1cc(Cl)cc(OCCN2CCOCC2C)c1` (stereo unspecified), the pIC50 is below 4.00.

Compound `CN(C)CCCOc1ccc2cncc(N3CCC4(CN(S(=O)(=O)CC5(C#N)CC5)Cc5ccc(Cl)cc54)C3=O)c2c1` (stereo unspecified) gave a pIC50 of 6.83.

The compound `CSc1ncc(C#N)c(Nc2cc(Cl)cc(CC(=O)Nc3cncc4ccccc34)c2)n1` gave a pIC50 of 5.74.

`CN(C)CCOc1ccc2cncc(NC(=O)C3CN(S(=O)(=O)CC4(C#N)CC4)Cc4ccc(Cl)cc43)c2c1` (stereo unspecified) showed a pIC50 of 6.93.

In the case of `O=C(Cc1cccc(Cl)c1)Nc1c[nH]c2ccccc12`, the pIC50 is below 4.00.

In the case of `Cc1cn2ccc(C(=O)Nc3nc(-c4cnn(C)c4)cs3)cc2n1`, the pIC50 is below 4.00.

`CC(NC(=O)CCl)c1cc(Cl)cc(-c2ccc(S(N)(=O)=O)cc2)c1` (stereo unspecified) gave a pIC50 of 6.33.

Compound `O=C(Cc1cc(Cl)cc(Nc2ccc3nccnc3c2Br)c1)Nc1cncc2ccccc12` showed a pIC50 of 5.71.

In turn, `Cc1cc(Nc2cc(Cl)cc(CC(=O)Nc3cncc4ccccc34)c2)ncc1I` had a pIC50 of 5.63.

Turning to `CC1CC(CCN(C(=O)c2ccco2)C(C(=O)NCCc2cccc(F)c2)c2cccnc2)CC(C)(C)C1` (stereo unspecified), the pIC50 is below 4.00.

In turn, `O=C(Cn1cn[nH]c1=O)NC1CCCCCC1c1ccccc1C(F)(F)F` (stereo unspecified) showed a pIC50 below 4.00.

Take `O=C(O)CC1(C(=O)Nc2cncc3ccccc23)CCOc2ccc(Cl)cc21` (stereo unspecified): the pIC50 was 4.50 and < 5.00.

Turning to `Cn1ccn2c(CNC(=O)c3ccc4ncsc4c3)nnc2c1=O`, the pIC50 is below 4.00.

As to `O=C(CC1(C(=O)Nc2cncc3ccccc23)CCOc2ccc(Cl)cc21)N1CCCC1c1nn[nH]n1` (stereo unspecified), the pIC50 was 5.10.

With `CC1(C(=O)Nc2cncc3ccccc23)CN(S(=O)(=O)CC2(C#N)CC2)Cc2ccc(Cl)cc21` (stereo unspecified), the pIC50 is 7.02.

As for `CN1CC(C)(C(=O)Nc2cncc3cc(S(C)(=O)=O)ccc23)c2cc(Cl)ccc2S1(=O)=O` (stereo unspecified), the pIC50 is 6.28.

As for `Cn1nc2c(c1C(=O)N(c1ccc(C(C)(C)C)cc1)C(C(=O)NCCc1cccc(F)c1)c1cccnc1)CS(=O)(=O)CC2` (stereo unspecified), the pIC50 is below 4.00.

The compound `O=C(NCCc1cccc(F)c1)C(c1cccnc1)N(C(=O)c1cnc[nH]1)c1ccc(OC(F)F)cc1` (stereo unspecified) gave a pIC50 of 4.66.

Compound `COC1(C(=O)Nc2cncc3ccncc23)CCOc2ccc(Cl)cc21` (stereo unspecified) gave a pIC50 of 6.08.

For the compound `O=C(Cc1cc(Cl)cc(N[C@H]2C(O)O[C@H](CO)[C@@H](O)[C@@H]2O)c1)Nc1cncc2ccccc12` (stereo in doubt), the pIC50 was 5.53.

On to `O=C(Nc1cncc2ccccc12)C1CN(S(=O)(=O)N2CCCC2CO)Cc2ccc(Cl)cc21` (stereo unspecified), for which the pIC50 was 5.94.

`COc1ccc(S(=O)(=O)N2CCN(C(=O)CCl)CC2)cc1` had a pIC50 of 4.56.

In turn, `O=C(Nc1ccccc1)[C@@H]1CN(C(=O)CCl)CCN1S(=O)(=O)c1ccsc1` (stereo in doubt) showed a pIC50 of 6.15.

In the case of `CC(C)(C)c1cc(Nc2cc(Cl)cc(CC(=O)Nc3cncc4ccccc34)c2)n(-c2ccccc2)n1`, the pIC50 was 5.69.

Turning to `O=C(NCCc1cccc(F)c1)C(c1cccnc1)N(C(=O)c1cocn1)c1cn(Cc2ccccc2)cn1` (stereo unspecified), the pIC50 was 4.56.

Regarding `COc1ccc(N(C(=O)c2ccco2)C(C(=O)NCCc2cccc(F)c2)c2cccnc2)cc1OCCO` (stereo unspecified), the negative-log IC50 (pIC50) was below 4.00.

In turn, `O=C(NCCc1cccc(F)c1)C(c1cccnc1)N(C(=O)c1cnc[nH]1)C1CCCCCC1` (stereo unspecified) gave a pIC50 below 4.00.

`O=C(Cc1ccc(C(F)(F)F)cc1)Nc1cncc2ccccc12` had a pIC50 of 4.61.

`O=C(Nc1cncc2ccccc12)C1CCOc2c(OCCC(F)(F)F)cc(Cl)cc21` (stereo unspecified) gave a pIC50 of 5.50.

`CC(C)(C)c1ccc(N(C(=O)c2coc(CS(C)(=O)=O)n2)C(C(=O)NCCc2cccc(F)c2)c2cccnc2)cc1` (stereo unspecified) gave a negative-log IC50 (pIC50) of 4.41.

Consider `CC(=O)N1CCN(CC(=O)Nc2cnccc2-c2ccccc2)CC1`, for which the pIC50 was below 4.00.

`O=C(Nc1cncc2ccccc12)C1CCN(Cc2ccccc2)c2ccc(Cl)cc21` (stereo unspecified) had a pIC50 of 5.97.

`CCCOc1ccc(Nc2cc(Cl)cc(CC(=O)Nc3cncc4ccccc34)c2)cc1` had a pIC50 of 5.53.

`O=C(CN(C(=O)Cc1cccnc1)c1ccc(-c2ncccn2)cc1)N1CCNCC1` showed a pIC50 below 4.00.

Take `O=C1CCCCN1c1ccc(N(Cc2ccccc2)C(=O)Cc2[nH]nc3ccccc23)cc1`: the pIC50 was 4.40.

With `O=C(CCl)N1CCN(Cc2cc(O)ccc2O)CC1`, the negative-log IC50 (pIC50) is 4.43.

The compound `O=C(Cc1cccc(Cl)c1)N1Cc2ccccc2C(O)C1` (stereo unspecified) had a pIC50 of 4.83.

Compound `O=C(Nc1cncc2cc(F)ccc12)[C@@H]1CCS(=O)(=O)c2ccc(Cl)cc21` (stereo in doubt) had a pIC50 of 6.53.

On to `C[C@@H]1C[C@H](C(=O)Nc2cncc3ccccc23)c2cc(Cl)ccc2O1` (stereo in doubt), for which the pIC50 is 6.17.

As for `O=C(Nc1cncc2ccccc12)C1COc2c(Cl)cccc21` (stereo unspecified), the negative logarithm of the IC50 (pIC50) was 5.32.

The compound `COc1ccc(Nc2cc(Cl)cc(CC(=O)Nc3cncc4ccccc34)c2)c([N+](=O)[O-])c1` gave a pIC50 of 5.67.

`Cc1cccc2ncc(NC(=O)Cc3cccc(Cl)c3)n12` gave a pIC50 of 5.26.

Turning to `Cc1ccncc1NC(=O)C(C)c1cc(Cl)cc(OC2CC(=O)N2)c1` (stereo unspecified), the pIC50 is 4.11.

The compound `O=C(NCCNc1ccccc1)c1cc(=O)[nH]c2ccccc12` gave a pIC50 below 4.00.

In the case of `COc1ccc([N+](=O)[O-])cc1COC(=O)c1cnc2ccccc2n1`, the pIC50 is below 4.00.

Compound `CCS(=O)(=O)N1Cc2ccc(Cl)cc2C(C(=O)Nc2cncc3ccccc23)C1` (stereo unspecified) showed a pIC50 of 6.62.

Turning to `CS(=O)(=O)NCC1(C(=O)Nc2cncc3ccccc23)CCOc2ccc(Cl)cc21` (stereo unspecified), the pIC50 is 5.41.

On to `O=C(CC1(C(=O)Nc2cncc3ccccc23)CCOc2ccc(Cl)cc21)N1CCCCC1c1nnc[nH]1` (stereo unspecified), for which the pIC50 was 6.36.

For `Cn1ncc2c(NC(=O)Cc3cccc(Cl)c3)cncc21`, the pIC50 is 4.47.

Take `O=C(Nc1cncc2ccccc12)[C@H]1COc2ccc(Cl)cc2C1` (stereo in doubt): the pIC50 is below 4.00.

As to `CCOC(=O)CCCNC(=O)C(c1cccnc1)N(C(=O)c1cocn1)c1ccc(C(C)(C)C)cc1` (stereo unspecified), the pIC50 is 5.20.

Consider `Cc1cc(NC(=O)Cc2cncnc2)cc(OC2CC(=O)N2)c1` (stereo unspecified), for which the pIC50 was 4.46 and 4.47.

The compound `CC(C)(C)c1ccc(N(C(=O)c2nc3c(s2)CCC3)C(C(=O)NCCc2cccc(F)c2)c2cccnc2)cc1` (stereo unspecified) gave a negative-log IC50 (pIC50) below 4.00.

Regarding `N#CC1(CS(=O)(=O)N2Cc3ccc(Cl)cc3[C@H](C(=O)Nc3cncc4ccccc34)C2)CCS(=O)(=O)CC1` (stereo in doubt), the pIC50 is > 7.30 and 7.09 and 7.28.

`NS(=O)(=O)C1Cc2ccccc2N(CCNS(=O)(=O)c2ccccc2)C1` (stereo unspecified) gave a pIC50 below 4.00.

`Cc1ccncc1NC(=O)Cc1cc(Cl)cc(OC2COC2)c1` had a pIC50 of 4.80.

`CC(=O)Nc1ccc2c(NC(=O)Cc3cccc(Cl)c3)cncc2c1`: the pIC50 is 6.41.

For `CC(C)(C)c1ccc(N(C(=O)c2nc3ncc(CCO)cn3n2)C(C(=O)NCCc2cccc(F)c2)c2cccnc2)cc1` (stereo unspecified), the pIC50 was below 4.00.

The compound `CS(=O)(=O)Nc1cccc(C2=NN(C(=O)CCl)C(c3ccccc3)C2)c1` (stereo unspecified) had a pIC50 of 5.23.

With `C=CC(=O)N(c1ccc(I)cc1)C(C(=O)Nc1ccc(Cl)cc1)c1cncnc1` (stereo unspecified), the pIC50 is 4.58.

Take `CC(c1ccccc1)N(C(=O)c1cnc[nH]1)C(C(=O)NCCc1cccc(F)c1)c1cccnc1` (stereo unspecified): the pIC50 was below 4.00.

As for `O=C(O)[C@@H](c1ccccc1)N1Cc2ccccc2C1=O` (stereo in doubt), the pIC50 is 5.75.
